In article PMC9395488, “First-in-human study of IM156, a novel potent biguanide oxidative phosphorylation (OXPHOS) inhibitor, in patients with advanced solid tumors” (Investigational New Drugs, 2022):

Test system: patients with advanced solid tumors
Assay: First-in-human phase 1 dose-escalation study: safety, DLTs, adverse events
Type: in vivo
Description: This multicenter first-in-human dose-escalation phase 1 study (clinicaltrials.gov identifier: NCT03272256) was designed to determine the MTD or RP2D and to evaluate the safety and tolerability of IM156. Secondary endpoints included PK characteristics, efficacy assessment (objective response rate [ORR], disease control rate [DCR], duration of response [DoR] and progression-free survival [PFS]). Furthermore, exploratory objectives included identification and profiling of IM156 metabolites, evaluations of exploratory PD markers of IM156, and evaluations of any potential relationship between putative biomarkers and safety/efficacy parameters of IM156. The study was conducted in accordance with Good Clinical Practice, the International Council for Harmonisation, and guidelines governing clinical study conduct and the ethical principles originating from the Declaration of Helsinki. The study was approved by each Institutional Review Board and patients provided written informed consent. Patients were enrolled at three sites in South Korea.
The initial dose and schedule of IM156 was chosen based on animal toxicology studies. […] IM156 was administered in the fasted state, with no food for at least 2 h before and 1 h after dosing.
Three DLT-evaluable patients were enrolled at each dose level. If there were no DLTs or other prohibitive adverse events (AEs), the Safety Committee was allowed to recommend escalation to the next highest dose level. If 1 DLT occurred in the first 3 DLT-evaluable patients, enrollment in that cohort was expanded to an additional 3 DLT-evaluable patients; if ≥ 2 DLTs were reported in a cohort, that dose was considered above the MTD.
Safety was assessed through vital signs, weight, laboratory assessments, physical examinations, electrocardiogram, and reporting of AEs as graded by the National Cancer Institute’s Common Terminology Criteria for Adverse Events v4.03 (NCI-CTCAE).
DLTs were defined as the following AEs if they were attributed as related to IM156: asymptomatic grade 4 neutropenia lasting for ≥ 5 days; febrile neutropenia, regardless of grade; grade 4 thrombocytopenia or grade 3 thrombocytopenia with bleeding; any grade ≥ 3 non-hematologic AE (except grade 3 hypertension and grade 3 nausea, vomiting or diarrhea for which proper measures for prevention and treatment were not implemented, and alopecia); blood lactate levels > 5 mmol; grade ≥ 2 AE prohibiting dosing of IM156 for ≥ 21 continuous days except for alterations in serum calcium or phosphorus levels. The safety analysis includes all patients who received at least one dose of study drug.
The safety population was defined as all patients who received at least one dose of IM156. The PK population was not defined in the protocol but included all patients with sufficient PK data to perform adequate PK modeling. The efficacy population included all patients who underwent at least one tumor imaging assessment while receiving IM156. Safety was assessed using descriptive statistics (e.g., DLTs, AEs, laboratory tests, physical examination, 12-lead ECG). The incidence and number of events were reported for the DLTs observed in Cycle 1 per dose group. […] Adverse events and TRAEs were standardized with the System Organ Class and the Preferred Term using the Medical Dictionary for Regulatory Activities v23.0. In addition, TEAEs, serious adverse events (SAEs), TEAE severity, and TEAEs leading to withdrawal were presented by dose group. Efficacy data were to be presented by Waterfall and Swim Lane plots. Time to event endpoints (e.g., DoR, PFS) were determined using Kaplan–Meier estimations with the median value for each endpoint summarized.

[1] = DL5 1200 mg orally every other day (n=3)

Structure (SMILES): NC(=Nc1ccc(OC(F)(F)F)cc1)N=C(N)N1CCCC1 [IM156]
- TEAE Dry skin grade 1 [1]: 0
- TEAE Dry skin grade 2 [1]: 0
- TEAE Dry skin grade 3 [1]: 0
- TEAE Dry skin grade 4 [1]: 0
- TEAE Flank pain grade 1 [1]: 0
- TEAE Flank pain grade 2 [1]: 0
- TEAE Flank pain grade 3 [1]: 0
- TEAE Flank pain grade 4 [1]: 0
- TEAE Hypertension grade 1 [1]: 0
- TEAE Hypertension grade 2 [1]: 0
- TEAE Hypertension grade 3 [1]: 0
- TEAE Hypertension grade 4 [1]: 0
- TEAE Hypotension grade 1 [1]: 0
- TEAE Hypotension grade 2 [1]: 1
- TEAE Hypotension grade 3 [1]: 0
- TEAE Hypotension grade 4 [1]: 0
- TEAE Insomnia grade 1 [1]: 0
- TEAE Insomnia grade 2 [1]: 0
- TEAE Insomnia grade 3 [1]: 0
- TEAE Insomnia grade 4 [1]: 0
- TEAE Pain in extremity grade 1 [1]: 0
- TEAE Pain in extremity grade 2 [1]: 0
- TEAE Pain in extremity grade 3 [1]: 0
- TEAE Pain in extremity grade 4 [1]: 0
- TEAE Pruritus grade 1 [1]: 0
- TEAE Pruritus grade 2 [1]: 0
- TEAE Pruritus grade 3 [1]: 0
- TEAE Pruritus grade 4 [1]: 0
- TEAE Psychiatric disorders grade 1 [1]: 0
- TEAE Psychiatric disorders grade 2 [1]: 0
- TEAE Psychiatric disorders grade 3 [1]: 0
- TEAE Psychiatric disorders grade 4 [1]: 0
- TEAE Purpura grade 1 [1]: 0
- TEAE Purpura grade 2 [1]: 0
- TEAE Purpura grade 3 [1]: 0
- TEAE Purpura grade 4 [1]: 0
- TEAE Urinary retention grade 1 [1]: 0
- TEAE Urinary retention grade 2 [1]: 0
- TEAE Urinary retention grade 3 [1]: 0
- TEAE Urinary retention grade 4 [1]: 0
- TEAE Urinary tract disorder grade 1 [1]: 0
- TEAE Urinary tract disorder grade 2 [1]: 0
- TEAE Urinary tract disorder grade 3 [1]: 0
- TEAE Urinary tract disorder grade 4 [1]: 0
- TEAE Abdominal discomfort, grade 1 (DL6 800 mg QD (n=3)): 1
- TEAE Alanine aminotransferase increased, grade 1 (DL6 800 mg QD (n=3)): 1
- TEAE Aspartate aminotransferase increased, grade 1 (DL6 800 mg QD (n=3)): 1
- TEAE Blood lactic acid increased, grade 1 (DL6 800 mg QD (n=3)): 1
- TEAE Constipation, grade 1 (DL6 800 mg QD (n=3)): 2
- TEAE Decreased appetite, grade 1 (DL6 800 mg QD (n=3)): 1
- TEAE Diarrhoea, grade 1 (DL6 800 mg QD (n=3)): 3
- TEAE Fatigue, grade 1 (DL6 800 mg QD (n=3)): 1
- TEAE Gastrointestinal pain, grade 1 (DL6 800 mg QD (n=3)): 1
- TEAE Nausea, grade 1 (DL6 800 mg QD (n=3)): 2
- TEAE Toothache, grade 1 (DL6 800 mg QD (n=3)): 1
- TEAE Vomiting, grade 1 (DL6 800 mg QD (n=3)): 1
- TRAE Abdominal Pain, > G3 (patients) (DL6 800 mg QD, N = 3): 0
- TRAE Abdominal Pain, All grades (patients) (DL6 800 mg QD, N = 3): 0
- TRAE Blood Lactic Acid increased, > G3 (patients) (DL6 800 mg QD, N = 3): 0
- TRAE Blood Lactic Acid increased, All grades (patients) (DL6 800 mg QD, N = 3): 1
- TRAE Constipation, > G3 (patients) (DL6 800 mg QD, N = 3): 0
- TRAE Constipation, All grades (patients) (DL6 800 mg QD, N = 3): 1
- TRAE Decreased appetite, > G3 (patients) (DL6 800 mg QD, N = 3): 0
- TRAE Decreased appetite, All grades (patients) (DL6 800 mg QD, N = 3): 0
- TRAE Diarrhoea, > G3 (patients) (DL6 800 mg QD, N = 3): 0
- TRAE Diarrhoea, All grades (patients) (DL6 800 mg QD, N = 3): 3
- TRAE Fatigue, > G3 (patients) (DL6 800 mg QD, N = 3): 0
- TRAE Fatigue, All grades (patients) (DL6 800 mg QD, N = 3): 0
- TRAE Insomnia, > G3 (patients) (DL6 800 mg QD, N = 3): 0
- TRAE Insomnia, All grades (patients) (DL6 800 mg QD, N = 3): 0
- TRAE Nausea, > G3 (patients) (DL6 800 mg QD, N = 3): 0
- TRAE Nausea, All grades (patients) (DL6 800 mg QD, N = 3): 2
- TRAE Vomiting, > G3 (patients) (DL6 800 mg QD, N = 3): 0
- TRAE Vomiting, All grades (patients) (DL6 800 mg QD, N = 3): 1
- TEAE Adrenal insufficiency grade 1 (DL6 800 mg orally daily (n=3)): 0
- TEAE Adrenal insufficiency grade 2 (DL6 800 mg orally daily (n=3)): 0
- TEAE Adrenal insufficiency grade 3 (DL6 800 mg orally daily (n=3)): 0
- TEAE Adrenal insufficiency grade 4 (DL6 800 mg orally daily (n=3)): 0
- TEAE Anaemia grade 1 (DL6 800 mg orally daily (n=3)): 0
- TEAE Anaemia grade 2 (DL6 800 mg orally daily (n=3)): 0
- TEAE Anaemia grade 3 (DL6 800 mg orally daily (n=3)): 0
- TEAE Anaemia grade 4 (DL6 800 mg orally daily (n=3)): 0
- TEAE Appendicitis perforated grade 1 (DL6 800 mg orally daily (n=3)): 0
- TEAE Appendicitis perforated grade 2 (DL6 800 mg orally daily (n=3)): 0
- TEAE Appendicitis perforated grade 3 (DL6 800 mg orally daily (n=3)): 0
- TEAE Appendicitis perforated grade 4 (DL6 800 mg orally daily (n=3)): 0
- TEAE Back pain grade 1 (DL6 800 mg orally daily (n=3)): 0
- TEAE Back pain grade 2 (DL6 800 mg orally daily (n=3)): 0
- TEAE Back pain grade 3 (DL6 800 mg orally daily (n=3)): 0
- TEAE Back pain grade 4 (DL6 800 mg orally daily (n=3)): 0
- TEAE Cystitis grade 1 (DL6 800 mg orally daily (n=3)): 0
- TEAE Cystitis grade 2 (DL6 800 mg orally daily (n=3)): 0
- TEAE Cystitis grade 3 (DL6 800 mg orally daily (n=3)): 0
- TEAE Cystitis grade 4 (DL6 800 mg orally daily (n=3)): 0
- TEAE Dry skin grade 1 (DL6 800 mg orally daily (n=3)): 0
- TEAE Dry skin grade 2 (DL6 800 mg orally daily (n=3)): 0
- TEAE Dry skin grade 3 (DL6 800 mg orally daily (n=3)): 0
- TEAE Dry skin grade 4 (DL6 800 mg orally daily (n=3)): 0
- TEAE Flank pain grade 1 (DL6 800 mg orally daily (n=3)): 0
- TEAE Flank pain grade 2 (DL6 800 mg orally daily (n=3)): 0
- TEAE Flank pain grade 3 (DL6 800 mg orally daily (n=3)): 0
- TEAE Flank pain grade 4 (DL6 800 mg orally daily (n=3)): 0
- TEAE Hypertension grade 1 (DL6 800 mg orally daily (n=3)): 0
- TEAE Hypertension grade 2 (DL6 800 mg orally daily (n=3)): 0
- TEAE Hypertension grade 3 (DL6 800 mg orally daily (n=3)): 0
- TEAE Hypertension grade 4 (DL6 800 mg orally daily (n=3)): 0
- TEAE Hypotension grade 1 (DL6 800 mg orally daily (n=3)): 0
- TEAE Hypotension grade 2 (DL6 800 mg orally daily (n=3)): 0
- TEAE Hypotension grade 3 (DL6 800 mg orally daily (n=3)): 0
- TEAE Hypotension grade 4 (DL6 800 mg orally daily (n=3)): 0
- TEAE Insomnia grade 1 (DL6 800 mg orally daily (n=3)): 1
- TEAE Insomnia grade 2 (DL6 800 mg orally daily (n=3)): 0
- TEAE Insomnia grade 3 (DL6 800 mg orally daily (n=3)): 0
- TEAE Insomnia grade 4 (DL6 800 mg orally daily (n=3)): 0
- TEAE Pain in extremity grade 1 (DL6 800 mg orally daily (n=3)): 0
- TEAE Pain in extremity grade 2 (DL6 800 mg orally daily (n=3)): 0
- TEAE Pain in extremity grade 3 (DL6 800 mg orally daily (n=3)): 0
